Like-named read-outs stand apart in the source and are kept apart here.
Assays:
[1] = tested on: human foreskin fibroblast (HFF); assay: Cytotoxicity by cell proliferation, HFF cells; type: cell-based; settings: read-out: IC50 for indicated cell line HFF
Description: (§1) The cytotoxicity of the novel trans-platinum compounds was assayed through the standard protocols of the NCI Developmental Therapeutics (HIV) and NIAID (Herpes Viruses) Screening Programs.
(§2) http://www.niaid.nih.gov/dmid/apdsame.html. IC50 is cytotoxic dose in cell carriers.
(§3) The cytotoxicity of several nucleobase compounds of the general formula SP-4-2-[PtX(L)(L′)(B)]^+ was assessed and the results are given in Table I. The cell lines employed were human foreskin fibroblast (HFF), Daudi, and CEM-SS, a T-cell line typically used to csrry snd maintain human imnmunodefficiency virus (HIV). The lC50 values for HFF and Dsudi cell lines were determined by cell proliferation as referenced above. The IC50 values for the CEM-SS cell line was determined by XTT colorimetric assays as referenced above.

Daudi = assay: Cytotoxicity by cell proliferation, Daudi cells; type: cell-based; settings: read-out: IC50 for indicated cell line Daudi
Description: as §1, §2, §3

CEM-SS, a T-cell line = assay: Cytotoxicity by XTT colorimetric assay, CEM-SS cells; type: cell-based; settings: read-out: IC50 for indicated cell line CEM-SS
Description: as §1, §2, §3

[2] = Water-solubility compared with the parent compound; type: physicochemical; settings: statement in words, no values
L1210 Leukemia [3] = settings: murine L1210 leukemia; J. Med. Chem. 32:2240; cited from earlier work
L1210 Leukemia [4] = settings: for in vivo antitumor activity: murine L1210 leukemia
Source text: b: %T/C is % average survival in days of treated animals/average survival in days of control animals. All tests performed as reported in references in a above. 50×3 refers to dose (mg/kg) and schedule (drug injection at 1,5,9 days after tumor inoculation).

A 2780 = A 2780 cells

Row | Molecule | IC50 [1] [µM] | IC50 (Daudi) [µM] | IC50 (CEM-SS, a T-cell line; first CEM-SS column) [µM] | IC50 (CEM-SS, a T-cell line; second CEM-SS column) [µM] | further results
1 | CCn1c[n+]([Pt-2]([NH2])([NH3+])[Cl])c2c(=O)[nH]c(N)nc21 (stereo not drawn) [Compound 1, trans-[PtCl(9-ethylguanine)(NH3)2]^+] | 18.9 | 7.9 | – | – | –
2 | CCn1c[n+]([Pt-2]([NH2])([Cl])[n+]2ccsc2)c2c(=O)[nH]c(N)nc21 (centres unmarked) [Compound 2, SP-4-2-[PtCl(9-ethylguanine)(NH3)(thiazole)]^+] | 11.2 | 18.1 | 47.3 | 24.6 | –
3 | CCn1c[n+]([Pt-2]([NH2])([Cl])[n+]2cccc3ccccc32)c2c(=O)[nH]c(N)nc21 (centres unmarked) [Compound 4] | 25.9 | 0.93 | 47.4 | 31.7 | –
4 | CCn1c[n+]([Pt-2]([NH2])([Cl])[n+]2ccc3ccccc3c2)c2c(=O)[nH]c(N)nc21 (centres unmarked) [Compound 5, SP-4-2-[PtCl(9-ethylguanine)(NH3)(isoquinoline)]^+] | 2.8 | 4.8 | – | – | –
5 | CCn1c[n+]([Pt-2]([Cl])([n+]2ccc(C)cc2)[n+]2ccc(C)cc2)c2c(=O)[nH]c(N)nc21 [Compound 6, trans-[PtCl(9-ethylguanine) (4-picoline)2]^+] | 21.7 | 0.92 | 1.9 | 2 | water-solubility and bioavailability versus parent trans-[PtCl2(4-pic)2] [2]: significant water-solubility and bioavailability over the parent compound
6 | Cn1ccc(N)[n+]([Pt-2]([NH2])([Cl])[n+]2cccc3ccccc32)c1=O (centres unmarked) [Compound 9, SP-4-2-[PtCl(1-methylcytosine)(NH3)(quinoline)]^+] | 38.7 | 14.1 | 50.4 | 33.2 | –
7 | Cn1ccc(N)[n+]([Pt-2]([NH2])([Cl])[n+]2ccc3ccccc3c2)c1=O (centres unmarked) [Compound 10, SP-4-2-[PtCl(1-methylcytosine)(NH3)(isoquinoline)]^+] | > 56.4 | 21.6 | – | – | –
8 | [Cl][Pt][Cl].c1ccncc1.c1ccncc1 [trans-[PtCl2(pyridine)2], reference compound] | – | – | – | – | in vivo antitumor activity, previously reported (L1210 Leukemia [3]): totally inactive; L1210 Leukemia % T/C (L1210 Leukemia [4]; 50 × 2: 50 mg/kg, injected twice only): 106 (50 × 2) %; in vivo antitumor activity (L1210 Leukemia [4]): no activity; A 2780 IC50 (A 2780): 0.2 µg/mL
9 | SP-4-2-[PtCl(1-methylcytosine)(NH3)(thiazole)] [Compound 8] | > 52 | – | – | – | –
10 | SP-4-2-[PtCl(9-ethylguanine) (NH3)(benzothiazole)]^+ [Compound 3] | 11.2 | 9.8 | – | – | –
11 | trans-[PtCl(1-methylcytosine)(NH3)2]^+ [Compound 7] | > 45.2 | 15 | – | – | –
12 | trans-[PtCl(Me2SO)(pyridine)2]^+ | – | – | – | – | L1210 Leukemia % T/C (L1210 Leukemia [4]; 50 × 3: 50 mg/kg, injection at 1,5,9 days after tumor inoculation, T/C >150% indicative of activity): 155 (50 × 3) %; in vivo antitumor activity (L1210 Leukemia [4]): some antitumor activity; A 2780 IC50 (A 2780): 0.3 µg/mL

From US6350740B1, “Transplatinum complexes as cytotoxic and anticancer agents” (Virginia Commonwealth University, priority 2000, dated 2002)
